Like-named read-outs stand apart in the source and are kept apart here.
Experiments:
[1] = tested on: HCT116 (colorectal carcinoma); assay: MTT antiproliferation assay, HCT116; format: cell-based; conditions: Homo sapiens, HCT-116, read-out: IC50 (µM) HCT- 116
[2] = tested on: HepG2 (hepatocellular carcinoma); assay: MTT antiproliferation assay, HepG2; format: cell-based, human
CDK12 = CDK12 (Homo sapiens, UniProt Q9NYV4); assay: CDK12 inhibition assay; format: biochemical
[3] = tested on: MCF7 (mammary gland breast cancer); assay: MTT antiproliferation assay, MCF7; format: cell-based; conditions: Homo sapiens, MCF7, read-out: IC50 (µM) MCF- 7
[4] = tested on: WI- 38 (embryonic lung fibroblasts); assay: MTT assay, WI-38 fibroblasts; format: cell-based; conditions: Homo sapiens, WI-38, read-out: IC50 (µM) WI- 38
[5] = tested on: HeLa (cervical epithelioid carcinoma); assay: MTT antiproliferation assay, HeLa; format: cell-based, human
CDK9 = CDK9 (Homo sapiens, UniProt P50750); assay: biochemical
CDK9, sequence (P50750 whole entry): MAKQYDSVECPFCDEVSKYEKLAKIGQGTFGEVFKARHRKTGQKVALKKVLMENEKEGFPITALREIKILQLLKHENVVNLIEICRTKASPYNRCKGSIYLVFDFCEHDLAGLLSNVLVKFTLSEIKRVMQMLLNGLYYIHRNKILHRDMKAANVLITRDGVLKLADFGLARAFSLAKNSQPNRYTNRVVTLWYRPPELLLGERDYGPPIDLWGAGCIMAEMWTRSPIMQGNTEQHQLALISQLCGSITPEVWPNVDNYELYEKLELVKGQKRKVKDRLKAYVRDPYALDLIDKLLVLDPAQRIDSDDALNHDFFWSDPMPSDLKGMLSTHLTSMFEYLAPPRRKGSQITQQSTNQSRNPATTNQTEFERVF
CDK9, sequence (O60563 whole entry partner): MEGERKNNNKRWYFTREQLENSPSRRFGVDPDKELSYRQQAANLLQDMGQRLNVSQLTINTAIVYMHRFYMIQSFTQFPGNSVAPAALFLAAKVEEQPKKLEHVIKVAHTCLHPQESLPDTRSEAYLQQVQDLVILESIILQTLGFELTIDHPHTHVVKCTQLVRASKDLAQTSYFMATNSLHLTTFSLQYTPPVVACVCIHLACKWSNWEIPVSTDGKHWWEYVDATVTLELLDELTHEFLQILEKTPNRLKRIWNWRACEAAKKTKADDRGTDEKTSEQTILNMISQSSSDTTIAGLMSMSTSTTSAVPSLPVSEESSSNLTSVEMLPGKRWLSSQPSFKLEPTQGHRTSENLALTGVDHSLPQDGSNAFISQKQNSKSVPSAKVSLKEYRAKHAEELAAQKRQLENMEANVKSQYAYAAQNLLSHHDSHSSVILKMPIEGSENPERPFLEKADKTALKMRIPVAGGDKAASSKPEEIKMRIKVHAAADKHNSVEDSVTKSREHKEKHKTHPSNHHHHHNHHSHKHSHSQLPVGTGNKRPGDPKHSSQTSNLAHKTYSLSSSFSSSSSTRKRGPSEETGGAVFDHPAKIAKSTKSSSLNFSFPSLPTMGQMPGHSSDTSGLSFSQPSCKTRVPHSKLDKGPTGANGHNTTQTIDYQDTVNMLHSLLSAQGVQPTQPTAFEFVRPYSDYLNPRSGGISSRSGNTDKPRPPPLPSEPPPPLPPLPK

[6] = Homo sapiens, HepG2, read-out: IC50 (µM) HePG- 2, MTT assay, HepG2 cells
[7] = Homo sapiens, HeLa, read-out: IC50 (µM) Hela, MTT assay, HeLa cells
[8] = read-out: IC50 (µM) Hela, MTT assay, HeLa cells

CDK12, sequence (Q9NYV4 whole entry): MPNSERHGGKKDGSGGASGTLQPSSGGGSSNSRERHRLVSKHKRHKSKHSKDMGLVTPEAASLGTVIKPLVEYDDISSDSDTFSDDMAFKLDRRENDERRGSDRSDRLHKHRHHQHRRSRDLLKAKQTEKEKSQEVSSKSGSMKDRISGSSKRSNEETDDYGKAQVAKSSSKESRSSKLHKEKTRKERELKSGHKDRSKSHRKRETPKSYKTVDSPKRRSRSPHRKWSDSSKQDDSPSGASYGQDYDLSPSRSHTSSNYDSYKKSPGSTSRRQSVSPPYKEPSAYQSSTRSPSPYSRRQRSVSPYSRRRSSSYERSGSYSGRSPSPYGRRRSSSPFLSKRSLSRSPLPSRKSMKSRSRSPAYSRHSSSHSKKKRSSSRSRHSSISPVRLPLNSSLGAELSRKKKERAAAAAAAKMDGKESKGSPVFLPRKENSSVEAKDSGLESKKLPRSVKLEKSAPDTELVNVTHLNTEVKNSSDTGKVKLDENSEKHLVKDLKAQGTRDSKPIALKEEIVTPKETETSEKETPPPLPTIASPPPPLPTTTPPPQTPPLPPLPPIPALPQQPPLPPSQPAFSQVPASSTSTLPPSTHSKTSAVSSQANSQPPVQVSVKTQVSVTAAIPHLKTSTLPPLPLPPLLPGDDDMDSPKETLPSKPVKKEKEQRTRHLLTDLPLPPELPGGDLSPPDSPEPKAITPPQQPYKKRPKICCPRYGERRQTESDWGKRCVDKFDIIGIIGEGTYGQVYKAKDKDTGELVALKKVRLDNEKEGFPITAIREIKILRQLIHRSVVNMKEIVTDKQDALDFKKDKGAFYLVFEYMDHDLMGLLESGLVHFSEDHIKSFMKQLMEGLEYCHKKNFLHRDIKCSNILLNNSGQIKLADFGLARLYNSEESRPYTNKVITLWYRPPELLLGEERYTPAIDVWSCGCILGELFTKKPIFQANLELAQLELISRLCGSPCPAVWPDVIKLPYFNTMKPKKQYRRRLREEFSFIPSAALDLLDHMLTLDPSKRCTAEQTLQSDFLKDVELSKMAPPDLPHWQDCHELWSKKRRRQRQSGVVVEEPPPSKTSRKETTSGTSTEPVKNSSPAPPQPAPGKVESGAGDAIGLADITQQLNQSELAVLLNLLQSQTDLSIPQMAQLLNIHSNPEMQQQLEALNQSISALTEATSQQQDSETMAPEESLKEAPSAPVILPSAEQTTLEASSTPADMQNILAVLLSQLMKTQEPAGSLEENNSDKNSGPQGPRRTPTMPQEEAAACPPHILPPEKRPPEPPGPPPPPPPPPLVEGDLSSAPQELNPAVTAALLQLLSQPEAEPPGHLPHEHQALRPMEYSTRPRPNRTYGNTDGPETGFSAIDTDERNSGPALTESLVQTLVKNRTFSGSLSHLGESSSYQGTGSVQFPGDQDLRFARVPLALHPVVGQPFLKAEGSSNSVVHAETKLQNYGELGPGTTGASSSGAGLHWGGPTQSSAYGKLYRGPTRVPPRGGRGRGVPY
CDK12, sequence (O75909 whole entry partner): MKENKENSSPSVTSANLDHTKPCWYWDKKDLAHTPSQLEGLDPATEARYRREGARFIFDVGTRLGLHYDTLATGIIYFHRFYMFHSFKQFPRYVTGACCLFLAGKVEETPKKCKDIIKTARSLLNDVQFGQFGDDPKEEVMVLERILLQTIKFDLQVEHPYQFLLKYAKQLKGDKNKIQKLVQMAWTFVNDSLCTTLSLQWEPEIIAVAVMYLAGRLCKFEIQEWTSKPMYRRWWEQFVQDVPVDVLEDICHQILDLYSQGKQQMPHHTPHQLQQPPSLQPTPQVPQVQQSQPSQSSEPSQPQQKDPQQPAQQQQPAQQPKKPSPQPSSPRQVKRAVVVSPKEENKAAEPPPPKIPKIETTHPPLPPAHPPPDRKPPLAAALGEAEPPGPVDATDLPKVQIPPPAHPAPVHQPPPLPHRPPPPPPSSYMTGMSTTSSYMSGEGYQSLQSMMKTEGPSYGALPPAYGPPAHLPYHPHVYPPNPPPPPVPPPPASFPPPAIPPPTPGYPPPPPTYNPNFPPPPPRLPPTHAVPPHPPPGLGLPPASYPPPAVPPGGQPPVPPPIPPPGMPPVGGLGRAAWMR

Row | SMILES | IC50 [1] [µM] | IC50 [2, 6] [µM] | IC50 (CDK12) [µM] | IC50 [3] [µM] | IC50 [5, 7] [µM] | IC50 (CDK9) [µM] | IC50 [5, 8] [µM] | IC50 ([2]; read-out: IC50 (µM) HePG- 2, MTT assay, HepG2 cells) [µM] | IC50 [4] [µM]
1 | NS(=O)(=O)c1cccc(Nc2ncc(C(F)(F)F)c(-n3c(C4CC4)nc4ccccc43)n2)c1 [Compound 4 t, 3-((4-(2-cyclopropyl-1H-benzo[d]imidazol-1-yl)− 5-(trifluoromethyl)pyrimidin-2-yl)amino)benzenesulfonamide] | 38.8 ± 2.3 | 29.3 ± 1.9 | 0.533 ± 0.021 | 27.8 ± 1.8 | 30.3 ± 1.9 | 0.121 ± 0.005 | – | – | > 50
2 | Cc1cnc(Nc2cccc(S(N)(=O)=O)c2)nc1-n1c(C2CC2)nc2ccccc21 [Compound 4 s, 3-((4-(2-cyclopropyl-1H-benzo[d]imidazol-1-yl)− 5-methylpyrimidin-2-yl)amino)benzenesulfonamide] | > 50 | 38.1 ± 2.3 | 0.189 ± 0.007 | 45.7 ± 2.4 | 47.2 ± 2.5 | 0.408 ± 0.018 | – | – | 28 ± 2
3 | COc1cccc2c1C(=O)c1c(O)c3c(c(O)c1C2=O)C[C@@](O)(C(=O)CO)C[C@@H]3O[C@H]1C[C@H](N)[C@H](O)[C@H](C)O1 [Doxorubicin, reference compound] | – | 4.5 ± 0.2 | – | – | – | – | – | – | –
4 | Cc1nc2ccccc2n1-c1nc(Nc2cccc(S(N)(=O)=O)c2)ncc1C(F)(F)F [Compound 4 h, 3-((4-(2-methyl-1H-benzo[d]imidazol-1-yl)− 5-(trifluoromethyl)pyrimidin-2-yl)amino)benzenesulfonamide] | > 50 | > 50 | 0.153 ± 0.006 | > 50 | > 50 | 0.05 ± 0.002 | – | – | > 50
5 | NS(=O)(=O)c1cccc(Nc2ncc(C(F)(F)F)c(-n3cnc4ccccc43)n2)c1 [Compound 4 d, 3-((4-(1H-benzo[d]imidazol-1-yl)− 5-(trifluoromethyl)pyrimidin-2-yl)amino)benzenesulfonamide] | > 50 | > 50 | 1.33 ± 0.052 | > 50 | > 50 | 0.782 ± 0.034 | – | – | > 50
6 | Cc1cnc(Nc2cccc(S(N)(=O)=O)c2)nc1-n1c(C)nc2ccccc21 [Compound 4 g, 3-((5-methyl-4-(2-methyl-1H-benzo[d]imidazol-1-yl)pyrimidin-2-yl)amino)benzenesulfonamide] | 9.34 ± 0.8 | 7.59 ± 0.6 | 0.071 ± 0.003 | 5.08 ± 0.3 | 12.6 | 0.114 ± 0.005 | 12.7 ± 0.9 | – | > 50
7 | NS(=O)(=O)c1cccc(Nc2ncc(C(F)(F)F)c(-n3c(C(F)(F)F)nc4ccccc43)n2)c1 [Compound 4 l, 3-((5-(trifluoromethyl)− 4-(2-(trifluoromethyl)− 1H-benzo[d]imidazol-1-yl)pyrimidin-2-yl)amino)benzenesulfonamide] | > 50 | > 50 | 0.899 ± 0.035 | > 50 | > 50 | 1.67 ± 0.072 | – | – | 18.3 ± 1.3
8 | CC(C)c1nc2ccccc2n1-c1ccnc(Nc2cccc(S(N)(=O)=O)c2)n1 [Compound 4 m, 3-((4-(2-isopropyl-1H-benzo[d]imidazol-1-yl)pyrimidin-2-yl)amino)benzenesulfonamide] | 7.19 ± 0.5 | 3.56 ± 0.2 | 0.06 ± 0.002 | 2.18 ± 0.1 | 6.39 ± 0.4 | 0.04 ± 0.002 | – | – | > 50

The next lines start with results.

Row | IC50 [1] [µM] | IC50 [2, 6] [µM] | IC50 (CDK12) [µM] | IC50 [3] [µM] | IC50 [5, 7] [µM] | IC50 (CDK9) [µM] | IC50 [5, 8] [µM] | IC50 ([2]; read-out: IC50 (µM) HePG- 2, MTT assay, HepG2 cells) [µM] | SMILES | IC50 [4] [µM]
9 | > 50 | > 50 | 0.295 ± 0.011 | > 50 | > 50 | 0.396 ± 0.017 | – | – | NS(=O)(=O)c1cccc(Nc2nccc(-n3cnc4ccccc43)n2)c1 [Compound 4a, 3-((4-(1H-benzo[d]imidazol-1-yl)pyrimidin-2-yl)amino)benzenesulfonamide] | 25.4 ± 1.8
10 | > 50 | > 50 | 1.88 ± 0.073 | > 50 | > 50 | 1.05 ± 0.045 | – | – | Cc1cnc(Nc2cccc(S(N)(=O)=O)c2)nc1-n1c(C(C)C)nc2ccccc21 [Compound 4o, 3-((4-(2-isopropyl-1H-benzo[d]imidazol-1-yl)− 5-methylpyrimidin-2-yl)amino)benzenesulfonamide] | > 50
11 | 16.8 ± 1.2 | 8.54 ± 0.7 | 0.104 ± 0.004 | 11.7 ± 0.9 | 19.4 | 0.055 ± 0.002 | 19.2 ± 1.5 | – | NS(=O)(=O)c1cccc(Nc2ncc(F)c(-n3c(C(F)(F)F)nc4ccccc43)n2)c1 [Compound 4j, 3-((5-fluoro-4-(2-(trifluoromethyl)− 1H-benzo[d]imidazol-1-yl)pyrimidin-2-yl)amino)benzenesulfonamide] | > 50
12 | 48.7 ± 2.7 | 34.1 ± 2.1 | 1.21 ± 0.047 | 39.8 ± 2.2 | 42.8 ± 2.3 | 5.47 ± 0.236 | – | – | Cc1cnc(Nc2cccc(S(N)(=O)=O)c2)nc1-n1c(C(F)(F)F)nc2ccccc21 [Compound 4k, 3-((5-methyl-4-(2-(trifluoromethyl)− 1H-benzo[d]imidazol-1-yl)pyrimidin-2-yl)amino)benzenesulfonamide] | > 50
13 | 13.7 ± 1 | 5.88 ± 0.4 | 0.074 ± 0.003 | 8.19 ± 0.5 | 9.71 ± 0.7 | 0.057 ± 0.002 | – | – | NS(=O)(=O)c1cccc(Nc2nccc(-n3c(C4CC4)nc4ccccc43)n2)c1 [Compound 4q, 3-((4-(2-cyclopropyl-1H-benzo[d]imidazol-1-yl)pyrimidin-2-yl)amino)benzenesulfonamide] | 31.4 ± 2.1
14 | > 50 | > 50 | 0.664 ± 0.026 | > 50 | > 50 | 0.153 ± 0.007 | – | – | CC(C)c1nc2ccccc2n1-c1nc(Nc2cccc(S(N)(=O)=O)c2)ncc1C(F)(F)F [Compound 4p, 3-((4-(2-isopropyl-1H-benzo[d]imidazol-1-yl)− 5-(trifluoromethyl)pyrimidin-2-yl)amino)benzenesulfonamide] | 45.3 ± 2.7
15 | > 50 | > 50 | 0.425 ± 0.017 | > 50 | > 50 | 0.409 ± 0.018 | – | – | Cc1nc2ccccc2n1-c1ccnc(Nc2cccc(S(N)(=O)=O)c2)n1 [Compound 4e, 3-((4-(2-methyl-1H-benzo[d]imidazol-1-yl)pyrimidin-2-yl)amino)benzenesulfonamide] | 39 ± 2.3
16 | 24.7 ± 1.7 | 22.3 ± 1.6 | 0.566 ± 0.022 | 14.2 ± 1.2 | 17 ± 1.3 | 1.15 ± 0.05 | – | – | NS(=O)(=O)c1cccc(Nc2ncc(F)c(-n3cnc4ccccc43)n2)c1 [Compound 4b, 3-((4-(1H-benzo[d]imidazol-1-yl)− 5-fluoropyrimidin-2-yl)amino)benzenesulfonamide] | 46.7 ± 2.6
17 | 43.3 ± 2.5 | 19.8 | 0.179 ± 0.007 | 32.4 ± 2 | 36.4 ± 2.1 | 0.392 ± 0.017 | – | 19.9 ± 1.4 | CC(C)c1nc2ccccc2n1-c1nc(Nc2cccc(S(N)(=O)=O)c2)ncc1F [Compound 4n, 3-((5-fluoro-4-(2-isopropyl-1H-benzo[d]imidazol-1-yl)pyrimidin-2-yl)amino)benzenesulfonamide] | 76.1 ± 3.9
18 | 29.8 ± 1.9 | 11.4 ± 0.9 | 0.104 ± 0.001 | 16.2 ± 1.4 | 26.5 ± 1.8 | 0.242 ± 0.01 | – | – | NS(=O)(=O)c1cccc(Nc2ncc(F)c(-n3c(C4CC4)nc4ccccc43)n2)c1 [Compound 4r, 3-((4-(2-cyclopropyl-1H-benzo[d]imidazol-1-yl)− 5-fluoropyrimidin-2-yl)amino)benzenesulfonamide] | > 50
19 | > 50 | 48.3 ± 2.7 | 0.365 ± 0.014 | > 50 | > 50 | 1.09 ± 0.047 | – | – | NS(=O)(=O)c1cccc(Nc2nccc(-n3c(C(F)(F)F)nc4ccccc43)n2)c1 [Compound 4i, 3-((4-(2-(trifluoromethyl)− 1H-benzo[d]imidazol-1-yl)pyrimidin-2-yl)amino)benzenesulfonamide] | > 50
20 | 33.5 ± 2 | 15.4 ± 1.2 | 1.14 ± 0.044 | 21.7 ± 1.7 | 23.6 ± 1.7 | 0.762 ± 0.033 | – | – | Cc1nc2ccccc2n1-c1nc(Nc2cccc(S(N)(=O)=O)c2)ncc1F [Compound 4f, 3-((5-fluoro-4-(2-methyl-1H-benzo[d]imidazol-1-yl)pyrimidin-2-yl)amino)benzenesulfonamide] | 41.2 ± 2.5
21 | > 50 | 44.4 ± 2.5 | 0.14 ± 0.005 | > 50 | 49.8 ± 2.7 | 0.041 ± 0.002 | – | – | Cc1cnc(Nc2cccc(S(N)(=O)=O)c2)nc1-n1cnc2ccccc21 [Compound 4c, 3-((4-(1H-benzo[d]imidazol-1-yl)− 5-methylpyrimidin-2-yl)amino)benzenesulfonamide] | > 50
